Measurements reported in US12122770B1, “2-(benzo[d]oxazol-2-yl)-n'-(nicotinoyloxy)acetimidamide as an antimicrobial compound” (KING FAISAL UNIVERSITY, priority 2023, dated 2024).

How the values were obtained:
[1] = tested on: Chrysosporium keratinophilum; test: Agar plate disc-diffusion, antifungal activity (inhibition zone); format: cell-based; settings: fungal, 72 hours, DMSO zone subtracted; for inhibition zone, Chrysosporium keratinophilum, A: A = concentration of comp. = 10,000 μL; for inhibition zone, Chrysosporium keratinophilum, B: B = concentration of comp. = 30,000 μL; for inhibition zone, Chrysosporium keratinophilum, C: C = concentration of comp. = 50,000 μL
Description: (§1) The agar plate disc-diffusion method was applied. […] The discs were then placed onto the surface of agar plates (nutrient agar for bacteria and Sabouraud's dextrose agar for fungi) seeded with the test organism. Each plate contained 15 mL of the agar medium, previously seeded with 0.2 mL of the broth culture of each organism pregrown for 18 hours. The plates were incubated at 37° C. for 48 hours, and 72 hours for fungi. The inhibition zones was measured in mm. Discs impregnated with DMSO were used as a control, and its inhibition zone was subtracted from the tested compound actual inhibition zone.

[2] = tested on: Aspergillus flavus; test: as above; format: cell-based; settings: fungal, 72 hours, DMSO zone subtracted; for inhibition zone, Aspergillus flavus, A: A = concentration of comp. = 10,000 μL; for inhibition zone, Aspergillus flavus, B: B = concentration of comp. = 30,000 μL; for inhibition zone, Aspergillus flavus, C: C = concentration of comp. = 50,000 μL
Description: as §1

[3] = tested on: Bacillus Cereus; test: Agar plate disc-diffusion, antibacterial activity (inhibition zone); format: cell-based; settings: Gram positive, DMSO zone subtracted; for inhibition zone, Bacillus Cereus, A: A = concentration of comp. = 10,000 μL; for inhibition zone, Bacillus Cereus, B: B = concentration of comp. = 30,000 μL; for inhibition zone, Bacillus Cereus, C: C = concentration of comp. = 50,000 μL
Description: as §1

[4] = tested on: Staphylococcus aureus; test: as above; format: cell-based; settings: Gram positive, DMSO zone subtracted; for inhibition zone, Staphylococcus aureus, A: A = concentration of comp. = 10,000 μL; for inhibition zone, Staphylococcus aureus, B: B = concentration of comp. = 30,000 μL; for inhibition zone, Staphylococcus aureus, C: C = concentration of comp. = 50,000 μL
Description: as §1

[5] = tested on: Pseudomonas aeruginosa; test: as above; format: cell-based; settings: Gram negative, DMSO zone subtracted; for inhibition zone, Pseudomonas aeruginosa, A: A = concentration of comp. = 10,000 μL; for inhibition zone, Pseudomonas aeruginosa, B: B = concentration of comp. = 30,000 μL; for inhibition zone, Pseudomonas aeruginosa, C: C = concentration of comp. = 50,000 μL
Description: as §1

[6] = tested on: Escherichia coli; test: as above; format: cell-based; settings: Gram negative, DMSO zone subtracted; for inhibition zone, Escherichia coli, A: A = concentration of comp. = 10,000 μL; for inhibition zone, Escherichia coli, B: B = concentration of comp. = 30,000 μL; for inhibition zone, Escherichia coli, C: C = concentration of comp. = 50,000 μL
Description: as §1

| Structure (SMILES) | inhibition zone, Chrysosporium keratinophilum, A [1] [mm] | inhibition zone, Chrysosporium keratinophilum, B [1] [mm] | inhibition zone, Chrysosporium keratinophilum, C [1] [mm] | inhibition zone, Aspergillus flavus, A [2] [mm] | inhibition zone, Aspergillus flavus, B [2] [mm] | inhibition zone, Aspergillus flavus, C [2] [mm] | inhibition zone, Bacillus Cereus, A [3] [mm] | inhibition zone, Bacillus Cereus, B [3] [mm] | inhibition zone, Bacillus Cereus, C [3] [mm] | inhibition zone, Staphylococcus aureus, A [4] [mm] | inhibition zone, Staphylococcus aureus, B [4] [mm] | inhibition zone, Staphylococcus aureus, C [4] [mm] | inhibition zone, Pseudomonas aeruginosa, A [5] [mm] | inhibition zone, Pseudomonas aeruginosa, B [5] [mm] | inhibition zone, Pseudomonas aeruginosa, C [5] [mm] | inhibition zone, Escherichia coli, A [6] [mm] | inhibition zone, Escherichia coli, B [6] [mm] | inhibition zone, Escherichia coli, C [6] [mm] | melting point [°C] |
| --- | --- | --- | --- | --- | --- | --- | --- | --- | --- | --- | --- | --- | --- | --- | --- | --- | --- | --- | --- |
| O=C(O)c1cn(C2CC2)c2cc(N3CCNCC3)c(F)cc2c1=O [Cip., ciprofloxacin, reference compound] | 30 | 33 | 55 | 28 | 31 | 43 | 29 | 31 | 42 | 43 | 44 | 53 | 29 | 30 | 53 | 30 | 39 | 60 |  |
| N/C(Cc1nc2ccccc2o1)=N\OC(=O)c1cccnc1 [compound 3, 2-(benzo[d]oxazol-2-yl)-N′-(nicotinoyloxy)acetimidamide] | 26 | 29 | 48 | 21 | 24 | 32 | 26 | 29 | 37 | 28 | 31 | 40 | 23 | 25 | 40 | 26 | 33 | 47 | 155 to 156 |
